Patent US20250059174A1, “Pharmaceutical Compounds and Compositions as C-Kit Kinase Inhibitors” (Enanta Pharmaceuticals, Inc., priority 2023, published 2025)

molecular target: Recombinant human c-KIT kinase (Homo sapiens (Human), UniProt P10721); test: c-KIT kinase chemiluminescence assay (ADP-Glo); type: biochemical; settings: ATP 50 μM
Description: The c-KIT Kinase Enzyme System (V4498) and ADP-Glo™ Kinase Assay kit (V6930) were purchased from Promega (Madison, WI). DMSO (D2650) was purchased from Sigma-Aldrich (Burlington, MA).
Kinase Reaction: The kinase assay was based on the recommended protocol by c-KIT Kinase Enzyme System from Promega. Recombinant human c-KIT kinase in 3 μL of assay buffer (40 mM Tris pH 7.5, 20 mM MgCl2, 0.1 mg/mL BSA and 50 μM DTT) was added to the test or high control wells and 3 μL of assay buffer was added to the low control wells. The microplate was centrifuged at 800 rotations per minute (rpm) for 60 s and incubated at room temperature (RT) for 30 min. Next, 2 μL of buffered ATP and polyEY substrate solution was added to all wells. The microplate was centrifuged at 800 rpm for 60 s and incubated at RT for 2 h.
ADP detection with ADP-Glo™ Kinase Assay: After the kinase reaction incubation, 5 μL of ADP-Glo™ reagent was added to all wells. The microplate was centrifuged at 800 rpm for 60 s and incubated at RT for 40 min. Ten microliter (10 μL) of Kinase Detection Reagent (Luciferin-Luciferase system) was then added to all wells. The microplate was centrifuged at 800 rpm for 60 s and incubated at RT for 60 min. Kinase activity was measured as increase in luminescence at RT in an Envision plate reader equipped with 560 nm filters and operating in endpoint mode. Data Analysis: Endpoint chemiluminescence from high and low control wells were used to calculate normalized c-KIT activity at various concentrations of test compounds. The normalized activities were fitted to inhibitor-versus-normalized response fit in GraphPad Prism 7 to determine half-maximal inhibitory concentration (IC50) and hill coefficient values (H).
Where I is the inhibitor concentration and H is the Hill coefficient.

Recombinant human c-KIT kinase, sequence (P10721 26-976): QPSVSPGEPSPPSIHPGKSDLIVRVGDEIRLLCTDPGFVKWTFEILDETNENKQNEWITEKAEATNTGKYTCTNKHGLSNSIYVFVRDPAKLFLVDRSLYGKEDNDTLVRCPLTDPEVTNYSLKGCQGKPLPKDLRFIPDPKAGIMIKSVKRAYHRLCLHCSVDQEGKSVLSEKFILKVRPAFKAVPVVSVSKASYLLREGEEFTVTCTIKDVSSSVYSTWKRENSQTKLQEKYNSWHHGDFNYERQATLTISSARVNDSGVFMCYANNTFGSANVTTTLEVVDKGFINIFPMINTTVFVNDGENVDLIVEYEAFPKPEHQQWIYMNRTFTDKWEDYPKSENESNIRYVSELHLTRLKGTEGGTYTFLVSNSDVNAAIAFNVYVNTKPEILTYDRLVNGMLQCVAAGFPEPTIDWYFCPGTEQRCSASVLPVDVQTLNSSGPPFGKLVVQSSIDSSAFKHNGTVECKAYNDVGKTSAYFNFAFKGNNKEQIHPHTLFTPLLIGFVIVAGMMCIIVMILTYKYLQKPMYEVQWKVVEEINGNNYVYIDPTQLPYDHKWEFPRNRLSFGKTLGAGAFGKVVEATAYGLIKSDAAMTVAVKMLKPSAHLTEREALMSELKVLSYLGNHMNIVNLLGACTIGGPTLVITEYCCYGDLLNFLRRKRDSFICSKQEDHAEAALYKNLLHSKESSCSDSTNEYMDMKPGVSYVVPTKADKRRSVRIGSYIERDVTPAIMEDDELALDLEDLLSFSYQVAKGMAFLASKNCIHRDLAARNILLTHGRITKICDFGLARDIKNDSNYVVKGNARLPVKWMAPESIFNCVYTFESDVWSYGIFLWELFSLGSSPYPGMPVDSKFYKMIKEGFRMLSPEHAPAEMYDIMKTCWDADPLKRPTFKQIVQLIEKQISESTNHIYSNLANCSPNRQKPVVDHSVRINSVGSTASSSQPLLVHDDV

Structure (SMILES)	IC50 [µM]
Cc1ccc(-c2noc([C@H]3C[C@@H]3F)n2)cc1NC(=O)c1cnc2cccn2c1 [Example 45]	> 1
Cc1ccc(-c2noc([C@H]3C[C@@H]3F)n2)cc1NC(=O)c1cnn2ccc(C(=O)N3CCCCC3)cc12 [Example 89]	> 1
Cc1ccc(-c2noc([C@H]3C[C@@H]3F)n2)cc1NC(=O)c1cnc2[nH]ncc2c1 [Example 31]	> 1
Cc1ccc(-c2noc([C@H]3C[C@@H]3F)n2)cc1NC(=O)c1ccnc2ncccc12 [Example 12]	> 1
Cc1ccc(-c2noc([C@H]3C[C@@H]3F)n2)cc1NC(=O)c1cnn2c1CCCC2 [Example 9]	> 1
Cc1ccc(-c2noc([C@H]3C[C@@H]3F)n2)cc1NC(=O)c1cnc2cn[nH]c2c1 [Example 48]	> 1
Cc1ccc(-c2noc([C@H]3C[C@@H]3F)n2)cc1NC(=O)c1cnc2ccnn2c1 [Example 47]	> 1
Cc1ccc(-c2noc([C@H]3C[C@@H]3F)n2)cc1NC(=O)c1cn2ccsc2n1 [Example 68]	> 1
Cc1ccc(-c2noc([C@H]3C[C@@H]3F)n2)cc1NC(=O)c1cnc2ncccc2c1 [Example 28]	> 1
Cc1ccc(-c2noc([C@H]3C[C@@H]3F)n2)cc1NC(=O)c1cn(-c2ccccc2)nc1C [Example 53]	> 1
Cc1ccc(-c2noc([C@H]3C[C@@H]3F)n2)cc1NC(=O)c1cnn(-c2ccc(Cl)cc2)c1 [Example 51]	> 1
C#Cc1ccc2c(C(=O)Nc3cc(-c4noc([C@H]5C[C@@H]5F)n4)ccc3C)cnn2c1 [Example 106]	< 0.1
Cc1ccc(-c2noc([C@H]3C[C@@H]3F)n2)cc1NC(=O)c1cnc2[nH]cnc2c1 [Example 66]	> 1
Cc1ccc(-c2noc([C@H]3C[C@@H]3F)n2)cc1NC(=O)c1cnn(-c2cccc(Cl)c2)c1 [Example 81]	> 1
Cc1ccc(-c2noc([C@H]3C[C@@H]3F)n2)cc1NC(=O)c1cnn2ncccc12 [Example 18]	> 1
Cc1ccc(-c2noc([C@H]3C[C@@H]3F)n2)cc1NC(=O)c1ccnc2cnccc12 [Example 8]	> 1
Cc1ccc(-c2noc([C@H]3C[C@@H]3F)n2)cc1NC(=O)c1cnc2ncccn12 [Example 25]	> 1
Cc1ccc(-c2noc([C@H]3C[C@@H]3F)n2)cc1NC(=O)c1cnc2c(cnn2C(=O)C(C)C)c1 [Example 32]	> 1
Cc1ccc(-c2noc([C@H]3C[C@@H]3F)n2)cc1NC(=O)c1csc2cncnc12 [Example 19]	> 1

Structure (SMILES)	IC50 [µM]
Cc1ccc(-c2noc([C@H]3C[C@@H]3F)n2)cc1NC(=O)c1cnc(-c2ccccc2)[nH]1 [Example 77]	> 1
Cc1ccc(-c2noc([C@H]3C[C@@H]3F)n2)cc1NC(=O)n1c(=O)[nH]c2ccccc21 [Example 86]	> 1
Cc1ccc(-c2noc([C@H]3C[C@@H]3F)n2)cc1NC(=O)c1cnc2ccncc2c1 [Example 64]	> 1
Cc1ccc(-c2noc([C@H]3C[C@@H]3F)n2)cc1NC(=O)c1cnc2c(c1)ncn2C(=O)C(C)C [Example 67]	> 1
Cc1ccc(-c2noc([C@H]3C[C@@H]3F)n2)cc1NC(=O)c1cnn(-c2ccccc2)n1 [Example 83]	> 1
Cc1ccc(-c2noc([C@H]3C[C@@H]3F)n2)cc1NC(=O)c1cnn(C)c1C [Example 11]	> 1
Cc1ccc(-c2noc([C@H]3C[C@@H]3F)n2)cc1NC(=O)c1cnc2nccn2c1 [Example 46]	> 1
Cc1ccc(-c2noc([C@H]3C[C@@H]3F)n2)cc1NC(=O)c1nnn2ccccc12 [Example 21]	> 1
Cc1ccc(-c2noc([C@H]3C[C@@H]3F)n2)cc1NC(=O)c1cnn(-c2cccc(NC(=O)OC(C)(C)C)c2)c1 [Example 87]	> 1
Cc1ccc(-c2noc([C@H]3C[C@@H]3F)n2)cc1NC(=O)c1cnc2[nH]ccc2c1 [Example 33]	> 1
Cc1ccc(-c2noc([C@H]3C[C@@H]3F)n2)cc1NC(=O)c1cnc2ncsc2c1 [Example 50]	> 1
Cc1ccc(-c2noc([C@H]3C[C@@H]3F)n2)cc1NC(=O)c1cnn(-c2ccccc2Cl)c1 [Example 76]	> 1
Cc1ccc(-c2noc([C@H]3C[C@@H]3F)n2)cc1NC(=O)c1cnc2cnccc2c1 [Example 63]	> 1
Cc1ccc(-c2noc([C@H]3C[C@@H]3F)n2)cc1NC(=O)c1nnc2ccccn12 [Example 20]	> 1
Cc1ccc(-c2noc([C@H]3C[C@@H]3F)n2)cc1NC(=O)c1cnc2cnn(C(=O)C(C)C)c2c1 [Example 49]	> 1
Cc1ccc(-c2noc([C@H]3C[C@@H]3F)n2)cc1NC(=O)c1cnn(-c2cccc(Br)c2)c1 [Example 82]	> 1
Cc1ccc(-c2noc([C@H]3C[C@@H]3F)n2)cc1NC(=O)c1cncn1-c1ccccc1 [Example 17]	> 1
Cc1ccc(-c2noc([C@H]3C[C@@H]3F)n2)cc1NC(=O)c1cn(-c2ccccc2)nn1 [Example 22]	> 1

Next, values leading:

IC50 [µM]	Structure (SMILES)
> 1	Cc1ccc(-c2noc([C@H]3C[C@@H]3F)n2)cc1NC(=O)c1cnc2sccc2c1 [Example 29]
> 1	O=C(Nc1cn(-c2ccc(C3CC3)cc2)nc1C(F)F)c1cnn2ccc(N3CC4(COC4)C3)cc12 [compound 373]
0.1 to 1	Cc1ccc(-c2noc([C@H]3C[C@@H]3F)n2)cc1NC(=O)c1cnc2n1CCOc1ccccc1-2 [Example 101]
0.1 to 1	Cc1ccc(-c2noc([C@H]3C[C@@H]3F)n2)cc1NC(=O)c1cnn2cc(Cl)c(N3CC4(COC4)C3)cc12 [Example 229]
> 1	Cc1ccc(-c2noc([C@H]3C[C@@H]3F)n2)cc1NC(=O)c1cnc2ccccc2n1 [Example 65]
> 1	Cc1ccc(-c2noc([C@H]3C[C@@H]3F)n2)cc1NC(=O)c1ccnc2ccnn12 [Example 26]
0.1 to 1	Cc1ccc(-c2noc([C@H]3C[C@@H]3F)n2)cc1NC(=O)c1cnc2cnccn12 [Example 1]
> 1	COc1ccccc1-c1ncc(C(=O)Nc2cc(-c3noc([C@H]4C[C@@H]4F)n3)ccc2C)[nH]1 [Example 78]
0.1 to 1	COc1cccc(-n2cc(C(=O)Nc3cc(-c4noc([C@H]5C[C@@H]5F)n4)ccc3C)cn2)c1 [Example 80]
< 0.1	Cc1ccc(-c2noc([C@H]3C[C@@H]3F)n2)cc1NC(=O)c1cnn2cc(-c3ccn(C(F)F)n3)ccc12 [Example 134]
< 0.1	Cc1ccc(-c2noc([C@H]3C[C@@H]3F)n2)cc1NC(=O)c1cnc(-c2ccc3c(cnn3CC(C)(C)O)c2)o1 [Example 308-65]
0.1 to 1	Cc1ncc(-c2nnn(C3CN(C(=O)C4CC4)C3)n2)cc1NC(=O)c1cnn2ccc(N3CC4(C3)CC(O)(C(F)F)C4)cc12 [Example 312-10]
< 0.1	Cc1ccc(-c2noc([C@H]3C[C@@H]3F)n2)cc1NC(=O)c1cnc(-c2ccc3nn(CC(C)(C)O)cc3c2)o1 [Example 308-66]
< 0.1	Cc1ccc(-c2noc([C@H]3C[C@@H]3F)n2)cc1NC(=O)c1cnn2cc(-c3cnn(CC(C)(C)O)c3)ccc12 [Example 143]
< 0.1	Cc1ccc(-c2noc([C@H]3C[C@@H]3F)n2)cc1NC(=O)c1cnn2cc(-c3cn(C(F)F)nn3)ccc12 [Example 107]
0.1 to 1	Cc1ccc(-c2noc([C@H]3C[C@@H]3F)n2)cc1NC(=O)c1cnc2n1CCCC2 [Example 10]
0.1 to 1	Cc1ccc(-c2noc([C@H]3C[C@@H]3F)n2)cc1NC(=O)c1cnn(-c2ccccn2)c1 [Example 75]
< 0.1	Cc1ccc(-c2noc([C@H]3C[C@@H]3F)n2)cc1NC(=O)c1cnn2cc(-c3cnn(CCO)c3)ccc12 [Example 139]
0.1 to 1	Cc1ccc(-c2noc([C@H]3C[C@@H]3F)n2)cc1NC(=O)c1cnc(-c2ccccc2)s1 [Example 84]
0.1 to 1	Cc1ccc(-c2noc([C@H]3C[C@@H]3F)n2)cc1NC(=O)c1cnn2ccc(C(=O)NC3CCCCC3)cc12 [Example 91]
0.1 to 1	Cc1ccc(-c2noc([C@H]3C[C@@H]3F)n2)cc1NC(=O)c1cnn2c1ccc1ccccc12 [Example 88]
< 0.1	Cc1ccc(-c2noc([C@H]3C[C@@H](OC(F)F)C3)n2)cc1NC(=O)c1cnn2ccc(N3CC4(COC4)C3)cc12 [Example 242]
< 0.1	Cc1ccc(-c2noc([C@H]3C[C@@H]3F)n2)cc1NC(=O)c1cnn2cc(-c3cnn(C(F)F)c3)ccc12 [Example 133]
< 0.1	Cc1ccc(-c2noc([C@H]3C[C@@H]3F)n2)cc1NC(=O)c1cnn2cc(-c3cnn(C4COC4)c3)ccc12 [Example 137]
0.1 to 1	Cc1ccc(-c2noc([C@H]3C[C@@H]3F)n2)cc1NC(=O)c1cn[nH]c1-c1ccccc1 [Example 79]
< 0.1	Cc1ccc(-c2noc([C@H]3C[C@@H]3F)n2)cc1NC(=O)c1cnn2cc(-c3cnn(C(C)(C)CO)c3)ccc12 [Example 141]
0.1 to 1	Cc1ccc(-c2noc([C@H]3C[C@@H]3F)n2)cc1NC(=O)c1cnc(-c2ccccc2F)s1 [Example 24]
